Test results reported in patent publication US4889860A (Nova Pharmaceutical Corporation, priority 1987, dated 1989).

How the values were obtained:
[1] = target: T1, mu-type opioid receptor (Rattus norvegicus, UniProt P33535); experiment: inhibition of specific [^3 H] DAGO binding to rat forebrain membranes
T1 construct: using rat forebrain membranes; from tissue; host or cells: rat forebrain membranes

[2] = system: oxymorphonazine (OMZ)-induced analgesia; experiment: antagonism of oxymorphonazine (OMZ)-induced analgesia (tail flick) in rats; assay type: in vivo, rat
Description: The compound of Example XII was evaluated for its potency and duration in the antagonism of oxymorphonazine (OMZ)-induced analgesia. […] Data represent the mean SEM of 4-5 animals per group.
(Cowan A. Trendsin Pharmacology Science, 7:69-72, 1986) With this test the intracerebroventricular administration of bombesin produces a characteristic scratching response.

[3] = S.C., dose tested (mg/kg): Naltrexone 0.5, Nalmefene 1.0, XI 10.0, XII 2.5, XIII 0.5, XIV 5.0

T1 sequence (P33535 whole entry): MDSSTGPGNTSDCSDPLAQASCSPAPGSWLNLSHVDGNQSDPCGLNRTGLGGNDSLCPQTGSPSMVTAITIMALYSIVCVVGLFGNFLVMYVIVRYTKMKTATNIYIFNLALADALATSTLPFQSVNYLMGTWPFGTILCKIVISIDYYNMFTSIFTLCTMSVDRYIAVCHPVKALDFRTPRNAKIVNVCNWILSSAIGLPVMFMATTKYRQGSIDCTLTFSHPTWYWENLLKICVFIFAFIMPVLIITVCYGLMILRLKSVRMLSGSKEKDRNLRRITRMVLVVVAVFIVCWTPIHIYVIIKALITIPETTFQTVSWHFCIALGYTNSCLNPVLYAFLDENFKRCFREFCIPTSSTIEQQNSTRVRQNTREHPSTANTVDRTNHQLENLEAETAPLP

Oc1ccc2c3c1O[C@H]1C(=NOc4ccccc4)CC[C@@]4(O)[C@@H](C2)N(CC2CC2)CC[C@]314 [Example XII, 6-Phenyloximino-17-cyclopropylmethyl-4,5 α-epoxy-3, 14-dihydroxymorphinan]
Ki ([1]; (Ki) nM, μ receptor (Rat Forebrain), Table 6, [^3 H] DAGO, mean of three experiments): 0.3 nM
Ki ([1]; Ki, inhibition of specific [^3 H] DAGO binding, Tables 1 and 2, rat brain membranes, MEAN±S.E.M.): 0.21 ± 0.08 nM
antagonism of OMZ-induced analgesia, PO ([2]; PO, 42.64 μmol/kg, 0.5 hours): 50%
ED50 ([2]; Rattus norvegicus, sc, Table 8, S.C., read-out: ED 50, oxymorphonazine antagonism): 0.34 mg/kg
ED100 ([2]; Rattus norvegicus, sc, Table 8, S.C., read-out: ED 100, oxymorphonazine antagonism): 3.1 mg/kg
Percent Antagonism at 1 Hr [2, 3]: 90%
Percent Antagonism at 1.5 Hr [2, 3]: 92%
Percent Antagonism at 2 Hr [2, 3]: 91%
Percent Antagonism at 3 Hr [2, 3]: 77%
Percent Antagonism at 4 Hr [2, 3]: 91%
Percent Antagonism at 6 Hr [2, 3]: 92%
Percent Antagonism at 8 Hr [2, 3]: 80%
